Values quoted from earlier work as cited in patent US9308212B2, “Compositions comprising alprazolam for treating primary insomnia and insomnia associated with anxiety states and process for preparing them” (LABORATORIOS BAGO S.A., priority 2008, dated 2016).

Solubility of the amorphous form relative to the crystalline form: 10 times
SMILES: CO[C@@H]1[C@@H](OC(N)=O)[C@@H](O)[C@H](Oc2ccc3c(O)c(NC(=O)c4ccc(O)c(CC=C(C)C)c4)c(=O)oc3c2C)OC1(C)C [amorphous novobiocine, novobiocine]
